Data as given in US8030336B2, “Nicotinamide-based kinase inhibitors” (YM Biosciences Australia Pty Ltd, priority 2002, dated 2011).

Tests used:
Format in all cases: biochemical
human JAK2 = molecular target: T1, human JAK2 (Homo sapiens, UniProt O60674); test: JAK2 kinase assay (ELISA or Alphascreen); conditions: read-out: Jak2 inhibition of enzyme activity
T1 construct: The kinase domain of human JAK2 was amplified from U937mRNA; His tag (from the pFastBac HTc vector) (N); made in house; host or cells: baculovirus; Sf9 for virus, High Five insect cells for production
T1 sequence (O60674 849-1124 limits assumed): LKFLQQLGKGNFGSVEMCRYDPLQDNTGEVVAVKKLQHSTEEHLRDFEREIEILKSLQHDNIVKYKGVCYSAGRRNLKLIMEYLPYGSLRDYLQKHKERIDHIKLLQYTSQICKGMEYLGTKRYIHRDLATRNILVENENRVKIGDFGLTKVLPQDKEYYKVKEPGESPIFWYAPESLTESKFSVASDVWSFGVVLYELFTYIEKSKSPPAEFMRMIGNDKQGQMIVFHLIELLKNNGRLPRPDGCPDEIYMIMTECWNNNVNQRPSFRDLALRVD
Summary of the method: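 His-tagged human JAK2 kinase domain from baculovirus-infected insect cells, ~1.5 μg per assay, in 50 mM HEPES pH 7.5, 10 mM MgCl2, 150 mM NaCl, with 10 μM–1 mM ATP and 5 μM biotinylated peptide substrate. Phosphotyrosine detected by PY20 ELISA or AlphaScreen.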

fms = molecular target: T2, fms (Homo sapiens, UniProt P07333); test: fms kinase assay (ELISA or Alphascreen); conditions: read-out: fms inhibition of enzyme activity
T2 sequence (P07333 582-910 limits assumed): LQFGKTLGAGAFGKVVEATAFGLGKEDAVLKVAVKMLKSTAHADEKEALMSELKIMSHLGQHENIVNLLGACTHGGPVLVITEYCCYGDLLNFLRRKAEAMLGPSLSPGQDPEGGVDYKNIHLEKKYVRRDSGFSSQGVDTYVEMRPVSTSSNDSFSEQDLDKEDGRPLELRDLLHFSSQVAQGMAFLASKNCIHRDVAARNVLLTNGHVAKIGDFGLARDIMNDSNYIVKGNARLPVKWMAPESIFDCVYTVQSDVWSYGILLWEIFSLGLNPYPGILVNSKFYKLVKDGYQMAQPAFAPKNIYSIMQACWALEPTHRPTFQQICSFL
Summary of the method: (§1)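 PTK domain ~1.5 μg; 50 mM HEPES pH 7.5, 10 mM MgCl2, 150 mM NaCl; ATP 10 μM-1 mM; biotinylated peptide 5 μM final. Read-out: avidin-capture ELISA with PY20 or Alphascreen pTyr acceptor/streptavidin donor beads.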

human JAK3 = molecular target: T3, human JAK3 (Homo sapiens, UniProt P52333); test: JAK3 kinase assay (ELISA or Alphascreen); conditions: read-out: Jak3 inhibition of enzyme activity
T3 construct: The kinase domain of human JAK3 was amplified from U937mRNA; His tag (from the pFastBac HTb vector) (N); made in house; host or cells: baculovirus; Sf9 for virus, High Five insect cells for production
T3 sequence (P52333 822-1111 limits assumed): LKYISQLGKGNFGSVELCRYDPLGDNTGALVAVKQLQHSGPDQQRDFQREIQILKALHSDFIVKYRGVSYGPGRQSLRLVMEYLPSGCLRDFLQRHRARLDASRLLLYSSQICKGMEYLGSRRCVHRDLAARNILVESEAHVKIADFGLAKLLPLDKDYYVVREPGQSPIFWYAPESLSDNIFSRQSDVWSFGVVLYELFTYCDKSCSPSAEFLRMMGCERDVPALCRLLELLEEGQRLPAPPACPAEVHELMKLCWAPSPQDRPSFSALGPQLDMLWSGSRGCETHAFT
Summary of the method: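 Read-out: anti-phosphotyrosine detection of a 5 μM biotin-peptide substrate, via PY20-peroxidase ELISA or Alphascreen beads. Enzyme was nickel-purified recombinant JAK3 kinase domain (~1.5 μg), with ATP at 10 μM-1 mM, pH 7.5 HEPES/MgCl2/NaCl.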

Zap70 = molecular target: T4, Zap70 (Homo sapiens, UniProt P43403); test: Zap70 kinase assay (ELISA or Alphascreen); conditions: read-out: Zap70 inhibition of enzyme activity
T4 sequence (P43403 338-600 limits assumed): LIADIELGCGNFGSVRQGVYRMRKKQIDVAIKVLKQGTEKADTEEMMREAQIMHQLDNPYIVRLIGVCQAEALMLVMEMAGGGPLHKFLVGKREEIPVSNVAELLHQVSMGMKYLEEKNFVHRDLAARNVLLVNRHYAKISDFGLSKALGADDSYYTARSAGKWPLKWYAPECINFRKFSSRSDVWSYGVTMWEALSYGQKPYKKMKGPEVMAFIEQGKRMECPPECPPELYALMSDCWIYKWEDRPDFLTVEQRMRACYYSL
Summary of the method: as §1

hck = hck (Homo sapiens, UniProt P08631); test: hck kinase assay (ELISA or Alphascreen); conditions: read-out: hck inhibition of enzyme activity
Sequence of hck (P08631 262-515 limits assumed, species assumed): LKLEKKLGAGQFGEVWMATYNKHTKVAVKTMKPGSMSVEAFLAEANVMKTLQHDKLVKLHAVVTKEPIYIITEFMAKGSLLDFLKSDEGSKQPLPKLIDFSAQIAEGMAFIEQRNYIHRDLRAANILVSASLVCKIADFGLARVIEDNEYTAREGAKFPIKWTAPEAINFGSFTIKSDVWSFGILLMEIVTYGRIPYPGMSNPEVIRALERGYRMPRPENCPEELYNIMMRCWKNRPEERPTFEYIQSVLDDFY
Method: Kinase assays were performed in a 96 well capture-based ELISA assay or in 384 well Optiplates (Packard) using an Alphascreen Protein Tyrosine Kinase kit. In either case using approximately 1.5 μg of affinity purified PTK domain in the presence of 50 mM HEPES, pH 7.5, 10 mM MgCl2, 150 mM NaCl and 10 μM-1 mM ATP. The biotinylated substrate biotin-EGPWLEEEEEAYGWMDF-NH2 (SEQ ID NO:9) (final concentration 5 μM) was used as substrate. In the ELISA assay tyrosine phosphorylation was quantitated following transfer to an avidin coated ELISA plate using peroxidase-linked anti-phosphotyrosine antibody PY20. In the Alphascreen assay, Alphascreen phosphotyrosine acceptor beads followed by streptavidin donor beads were added under subdued light. The ELISA plates were read on a BMG Fluorostar, the Alphascreen plates were read on a Packard Fusion Alpha. Inhibitors were added to the assays fifteen minutes prior to the addition of ATP. Inhibitors were added in aqueous […] concentrations never exceeding 1%.

abl = molecular target: T5, abl (Homo sapiens, UniProt P00519); test: abl kinase assay (ELISA or Alphascreen); conditions: read-out: abl inhibition of enzyme activity
T5 sequence (P00519 242-493 limits assumed): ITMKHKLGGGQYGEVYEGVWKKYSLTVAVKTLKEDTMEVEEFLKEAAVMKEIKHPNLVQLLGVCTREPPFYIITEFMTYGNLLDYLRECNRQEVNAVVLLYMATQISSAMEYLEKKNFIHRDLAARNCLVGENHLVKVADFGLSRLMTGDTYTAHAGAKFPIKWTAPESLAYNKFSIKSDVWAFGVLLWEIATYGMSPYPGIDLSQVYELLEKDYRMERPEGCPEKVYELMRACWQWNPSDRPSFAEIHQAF
Summary of the method: as §1

fes = fes (Homo sapiens, UniProt P07332); test: fes kinase assay (ELISA or Alphascreen); conditions: read-out: fes inhibition of enzyme activity
Sequence of fes (P07332 561-822 limits assumed, species assumed): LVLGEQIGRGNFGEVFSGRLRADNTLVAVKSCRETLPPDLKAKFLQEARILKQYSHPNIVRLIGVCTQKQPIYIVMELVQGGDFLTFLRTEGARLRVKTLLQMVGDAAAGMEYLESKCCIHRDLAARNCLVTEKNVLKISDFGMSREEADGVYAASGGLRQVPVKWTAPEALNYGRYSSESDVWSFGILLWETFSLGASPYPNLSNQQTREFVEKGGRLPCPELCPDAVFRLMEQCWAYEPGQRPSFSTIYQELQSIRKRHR
Summary of the method: as §1

SMILES | inhibition at 10 µM (human JAK2) | inhibition at 10 µM (fms) | inhibition at 10 µM (human JAK3) | inhibition at 10 µM (Zap70) | inhibition at 10 µM (hck) | inhibition at 10 µM (abl) | inhibition at 10 µM (fes)
COc1cc(NC(=O)c2cncc(-c3ccc(F)cc3)c2)cc(OC)c1OC | < 50% | < 50% | < 50% | < 50% | < 50% | < 50% | 
COc1cc(-c2cncc(C(=O)Nc3cc(C)ccc3C)c2)ccc1O | < 50% | ≥ 50% | < 50% | < 50% | ≥ 50% | ≥ 50% | 
Cc1cc(F)ccc1NC(=O)c1cncc(-c2ccc3c(c2)OCO3)c1 | < 50% | < 50% | < 50% | < 50% | < 50% | < 50% | 
O=C(NCc1ccc(Cl)c(Cl)c1)c1cncc(-c2ccc(F)cc2)c1 | < 50% | < 50% | < 50% |  | < 50% | < 50% | < 50%
COc1cc(-c2cncc(C(=O)Nc3cc(C)ccc3C)c2)c(Cl)c(OC)c1OC | < 50% | ≥ 50% | < 50% |  | ≥ 50% | < 50% | < 50%
Cc1cc(F)ccc1NC(=O)c1cncc(-c2cc(C)c(O)c(C)c2)c1 | < 50% | ≥ 50% | < 50% |  | ≥ 50% | ≥ 50% | < 50%
O=C(NCc1ccc(N2CCOCC2)cc1)c1cncc(-c2ccc3c(c2)OCO3)c1 | < 50% | < 50% | < 50% |  | < 50% | < 50% | < 50%
COc1ccc(NC(=O)c2cncc(-c3cccs3)c2)c(OC)c1 | < 50% | < 50% |  | < 50% | < 50% | < 50% | < 50%
Cc1ccc(C)c(NC(=O)c2cncc(-c3ccc(O)cc3)c2)c1 | < 50% | < 50% | < 50% | < 50% | ≥ 50% | < 50% | 
O=C(NCc1cccc(F)c1)c1cncc(-c2cccs2)c1 | < 50% | < 50% | < 50% |  | < 50% | < 50% | ≥ 50%
COc1cc(-c2cncc(C(=O)Nc3cc(F)ccc3C)c2)ccc1O | < 50% | ≥ 50% | < 50% |  | ≥ 50% | ≥ 50% | < 50%
COc1cccc(-c2cncc(C(=O)Nc3ccc(OC)cc3OC)c2)c1 | < 50% | < 50% | < 50% |  | < 50% | < 50% | < 50%
Cc1ccc(CNC(=O)c2cncc(-c3ccc(F)cc3)c2)cc1 | < 50% | < 50% |  | < 50% | < 50% | < 50% | < 50%
COc1cc(NC(=O)c2cncc(-c3cccs3)c2)cc(OC)c1OC | < 50% | < 50% |  | < 50% | < 50% | < 50% | < 50%

Now from value to compound:

inhibition at 10 µM (human JAK2) | inhibition at 10 µM (fms) | inhibition at 10 µM (human JAK3) | inhibition at 10 µM (Zap70) | inhibition at 10 µM (hck) | inhibition at 10 µM (abl) | inhibition at 10 µM (fes) | SMILES
< 50% | < 50% | < 50% | < 50% | ≥ 50% | < 50% |  | Cc1cc(-c2cncc(C(=O)Nc3ccccc3)c2)cc(C)c1O
< 50% | < 50% | ≥ 50% | < 50% | < 50% | < 50% |  | O=C(NCc1ccco1)c1cncc(-c2ccc(F)cc2)c1
< 50% | < 50% | < 50% |  | < 50% | < 50% | < 50% | COc1cc(-c2cncc(C(=O)N[C@H](C)c3ccccc3)c2)c(Cl)c(OC)c1OC
< 50% | < 50% | < 50% | < 50% | < 50% | < 50% |  | O=C(Nc1ccccc1)c1cncc(-c2ccc(O)cc2)c1
< 50% | < 50% | < 50% |  | ≥ 50% | < 50% | < 50% | COc1cccc(-c2cncc(C(=O)Nc3ccc(F)cc3C)c2)c1
< 50% | ≥ 50% | < 50% | < 50% | ≥ 50% | ≥ 50% |  | Cc1ccccc1NC(=O)c1cncc(-c2cc(C)c(O)c(C)c2)c1
< 50% | < 50% | < 50% |  | < 50% | < 50% | < 50% | O=C(Nc1ccccc1)c1cncc(-c2ccc(F)cc2)c1
< 50% | < 50% | < 50% | < 50% | < 50% | < 50% |  | COc1cc(-c2cncc(C(=O)NC(C)CCc3ccccc3)c2)c(Cl)c(OC)c1OC (stereo not drawn)
< 50% | < 50% |  | < 50% | < 50% | < 50% | < 50% | COc1cccc(-c2cncc(C(=O)NC(C)CCc3ccccc3)c2)c1 (stereo not drawn)
< 50% | < 50% | < 50% |  | < 50% | < 50% | < 50% | C[C@@H](NC(=O)c1cncc(-c2cccnc2)c1)c1ccccc1
< 50% | < 50% | < 50% | < 50% | < 50% | < 50% |  | C[C@H](NC(=O)c1cncc(-c2ccc(F)cc2)c1)c1ccccc1
< 50% | < 50% | < 50% |  | < 50% | < 50% | < 50% | COc1cccc(-c2cncc(C(=O)Nc3ccccc3)c2)c1
< 50% | < 50% | < 50% | ≥ 50% | < 50% | < 50% |  | C[C@@H](NC(=O)c1cncc(-c2ccncc2)c1)c1ccccc1
